In patent US20150105252A1, “SUBSTITUTED PYRAZOLES AS HERBICIDES” (E I DU PONT DE NEMOURS AND COMPANY, priority 2013, published 2015):

Assays:
Experiment in all cases: Test C postemergence
[1] = system: foxtail, giant; type: in vivo, Setaria faberii
Procedure, shortened: (§1)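 Seeds sown in loam–sand blend and treated preemergence with test chemicals in non-phytotoxic solvent with surfactant; postemergence plants in peat-based medium, treated at 2–18 cm (1- to 4-leaf stage). Greenhouse 13 to 15 days, then visual rating versus controls, 0 (no effect) to 100 (complete control).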

[2] = system: oilseed rape; type: in vivo, Brassica napus; settings: postemergence
Procedure, shortened: as §1

[3] = system: galium; type: in vivo, Galium aparine
Procedure, shortened: as §1

[4] = system: blackgrass; type: in vivo, Alopecurus myosuroides
Procedure, shortened: as §1

[5] = system: velvetleaf; type: in vivo, Abutilon theophrasti; settings: postemergence
Procedure, shortened: as §1

[6] = system: waterhemp; type: in vivo, Amaranthus rudis; settings: postemergence
Procedure, shortened: as §1

[7] = system: ryegrass, Italian; type: in vivo, Lolium multiflorum; settings: postemergence
Procedure, shortened: as §1

[8] = system: barnyardgrass; type: in vivo, Echinochloa crus-galli
Procedure, shortened: as §1

[9] = system: lambsquarters; type: in vivo, Chenopodium album
Procedure, shortened: as §1

[10] = system: oat, wild; type: in vivo, Avena fatua
Procedure, shortened: as §1

[11] = system: kochia; type: in vivo, Kochia scoparia
Procedure, shortened: as §1

[12] = system: nutsedge, yellow; type: in vivo, Cyperus esculentus
Procedure, shortened: as §1

[13] = system: crabgrass, large; type: in vivo, Digitaria sanguinalis
Procedure, shortened: as §1

[14] = system: morningglory; type: in vivo, Ipomoea coccinea
Procedure, shortened: as §1

[15] = Postemergence, 31 g ai/ha, visually evaluated after 13 to 15 days
[16] = postemergence, 62 g ai/ha, scale 0 to 100
[17] = postemergence, 250 g ai/ha, scale 0 to 100 (0 no effect, 100 complete control)
[18] = postemergence, 125 g ai/ha, scale 0 to 100, 0 no effect, 100 complete control
[19] = 250 g ai/ha, scale 0 to 100 (0 no effect, 100 complete control)
[20] = 125 g ai/ha, scale 0 to 100, 0 no effect, 100 complete control

CCc1cc(C(=O)NCC(F)(F)F)nn1Cc1cc(OC(F)F)nn1C [Compound 206]
Plant response rating (scale of 0 to 100 where 0 is no effect and 100 is complete control), Foxtail, Giant [1, 15]: 15
Foxtail, Giant plant response rating [1, 16]: 5
Plant response rating, Foxtail, Giant [1, 17]: 5
Plant response rating, Foxtail, Giant [1, 18]: 5
Oilseed Rape plant response rating ([2]; 62 g ai/ha, scale 0 to 100): 5
Plant response rating, Oilseed Rape [2, 19]: 50
Plant response rating, Oilseed Rape [2, 20]: 5
Plant response rating (scale of 0 to 100 where 0 is no effect and 100 is complete control), Galium [3, 15]: 30
Galium plant response rating [3, 16]: 30
Plant response rating, Galium [3, 17]: 45
Plant response rating, Galium [3, 18]: 60
Plant response rating (scale of 0 to 100 where 0 is no effect and 100 is complete control), Blackgrass [4, 15]: 0
Blackgrass plant response rating [4, 16]: 0
Plant response rating, Blackgrass [4, 17]: 5
Plant response rating, Blackgrass [4, 18]: 5
Plant response rating, Velvetleaf [5, 19]: 10
Velvetleaf plant response rating ([5]; scale 0 to 100): 10
Plant response rating, Waterhemp [6, 19]: 45
Waterhemp plant response rating ([6]; scale 0 to 100): 35
Plant response rating, Ryegrass, Italian [7, 19]: 0
Plant response rating, Ryegrass, Italian [7, 20]: 0
Plant response rating (scale of 0 to 100 where 0 is no effect and 100 is complete control), Barnyardgrass [8, 15]: 5
Barnyardgrass plant response rating [8, 16]: 5
Plant response rating, Barnyardgrass [8, 17]: 5
Plant response rating, Barnyardgrass [8, 18]: 5
Plant response rating (scale of 0 to 100 where 0 is no effect and 100 is complete control), Lambsquarters [9, 15]: 10
Lambsquarters plant response rating [9, 16]: 10
Plant response rating, Lambsquarters [9, 17]: 30
Plant response rating, Lambsquarters [9, 18]: 15
Plant response rating (scale of 0 to 100 where 0 is no effect and 100 is complete control), Oat, Wild [10, 15]: 0
Oat, Wild plant response rating [10, 16]: 0
Plant response rating, Oat, Wild [10, 17]: 5
Plant response rating, Oat, Wild [10, 18]: 5
Plant response rating (scale of 0 to 100 where 0 is no effect and 100 is complete control), Kochia [11, 15]: 30
Kochia plant response rating [11, 16]: 35
Plant response rating, Kochia [11, 17]: 75
Plant response rating, Kochia [11, 18]: 45
Plant response rating (scale of 0 to 100 where 0 is no effect and 100 is complete control), Nutsedge, Yellow [12, 15]: 0
Nutsedge, Yellow plant response rating [12, 16]: 0
Plant response rating, Nutsedge, Yellow [12, 17]: 0
Plant response rating, Nutsedge, Yellow [12, 18]: 0
Plant response rating (scale of 0 to 100 where 0 is no effect and 100 is complete control), Crabgrass, Large [13, 15]: 5
Crabgrass, Large plant response rating [13, 16]: 5
Plant response rating, Crabgrass, Large [13, 17]: 5
Plant response rating, Crabgrass, Large [13, 18]: 5
Plant response rating (scale of 0 to 100 where 0 is no effect and 100 is complete control), Morningglory [14, 15]: 40
Morningglory plant response rating [14, 16]: 40
Plant response rating, Morningglory [14, 17]: 65
Plant response rating, Morningglory [14, 18]: 60
